Details of series [1]: method as in PMID 3726896, PMID 1687590. As to conditions: similar metabolic profile also found in man; cited from earlier work.
For series [2], the system named is experimental skin injuries. Details: method as in ref 8 = [8]; 8 Radl S Kasafirek E Krejci I Alaptide Drugs of the Future 1990 15 445 447. The settings on record: rats; cited from earlier work.
On the set-up of series [3]: method as in ref 8, 9 = [8]; 8 Radl S Kasafirek E Krejci I Alaptide Drugs of the Future 1990 15 445 447 || [9]; 9 Jampílek J Opatrilova R Rezacova A Oktabec Z Dohnal J Inventors; Faculty of Pharmacy, University of Veterinary and Pharmaceutical Sciences Brno, assignee, “Alaptide: Methods of effecting its solubil. The settings on record: cited from earlier work.
On the set-up of series [4]: method as in PMID 3726896, PMID 2905482. As to conditions: cited from earlier work.
In the next series the test system is CYP1B1. Details: method as in PMID 3726896, PMID 2905482. As to conditions: hepatocytes; cited from earlier work.
Details of series [5]: method as in ref 8, 9 = [8]; 8 Radl S Kasafirek E Krejci I Alaptide Drugs of the Future 1990 15 445 447 || [9]; 9 Jampílek J Opatrilova R Rezacova A Oktabec Z Dohnal J Inventors; Faculty of Pharmacy, University of Veterinary and Pharmaceutical Sciences Brno, assignee, “Alaptide: Methods of effecting its solubil. The settings on record: octanol-water; cited from earlier work.
A short description of series [6]: In vitro transdermal permeation, Franz diffusion cell. As to conditions: for Cumulative permeated amounts Q t: mean ± SD n = 5; for apparent permeability coefficient K p × 10^−3: Kp = J/Cd, Cd 1.0 × 10^4 μg/mL.
Another series has as its system CYP1A2. Details: method as in PMID 3726896, PMID 2905482. The settings on record: hepatocytes; cited from earlier work.
In a further series the test system is CYP1A1. Details: method as in PMID 3726896, PMID 2905482. As to conditions: hepatocytes; cited from earlier work.
In a further series the test system is experimental injury. Details: method as in ref 8 = [8]; 8 Radl S Kasafirek E Krejci I Alaptide Drugs of the Future 1990 15 445 447. The settings on record: pigs; cited from earlier work.

The structures appear in SMILES notation. Marks after values point to notes of the source that are not given here.

As for `C[C@@H]1NC(=O)C2(CCCC2)NC1=O` [alaptide, (S)-8-Methyl-6,9-diazaspiro[4.5]decan-7,10-dione], in [1], the excretion entry is “excreted unchanged, mostly via urine”. The “curing of experimental skin injuries” value in series [2] is on record as “accelerated curing experimental skin injuries”. In addition, the solubility entry in series [3] is recorded as “poorly soluble”. For the same compound, the stability result in series [3] (sunlight) is given as “stable in the sunlight”. Further, in series [4], the “toxic effects (including skin irritation)” value is “No toxic effects”. The “Induction of CYP1B1” value in the series with CYP1B1 was “did not occur”. Besides, the “experimental log P o/w” value in series [5] was 1.39. For the same compound, the “permeation through the skin from ointment” value in [6] (both forms of alaptide, ointment) is “minimal”. In the series on CYP1A2, the “Induction of CYP1A2” value is given as “did not occur”. Also, the “Induction of CYP1A1” value in the series on CYP1A1 is recorded as “did not occur”. Also, the “skin regeneration after application on experimental injury” value in the series with experimental injury was “faster skin regeneration”.

Consider `C[C@@H]1NC(=O)C2(CCCC2)NC1=O` [Micro, (S)-8-Methyl-6,9-diazaspiro[4.5]decan-7,10-dione], for which the “log K p” value in series [6] (from buffer) is listed as −1.77; in series [6] (from gel), −1.23. The “Cumulative permeated amounts Q t” value in series [6] (from buffer, 0.5 h) was 12.6 ± 1.9^a μg/cm^2; in series [6] (from buffer, 1 h) it was 40.1 ± 8.0^a μg/cm^2; in series [6] (from buffer, 2 h), 150.8 ± 7.2^a μg/cm^2; in [6] (from buffer, 4 h) it was 418.3 ± 24.6^b μg/cm^2; in [6] (from buffer, 6 h) it was 1189.0 ± 105.9^d μg/cm^2; in series [6] (from buffer, 24 h), 3897.1 ± 295.6^f μg/cm^2. Moreover, the “Cumulative permeated amounts Q t” value is listed as 89.9 ± 4.0^a μg/cm^2 in [6] (from cream 1% (w/w), 0.5 h); 206.7 ± 8.9^a μg/cm^2 in [6] (from cream 1% (w/w), 1 h); 568.7 ± 7.2^b μg/cm^2 in series [6] (from cream 1% (w/w), 2 h); 1414.5 ± 21.3^d μg/cm^2 in series [6] (from cream 1% (w/w), 4 h); 2533.7 ± 9.2^f μg/cm^2 in series [6] (from cream 1% (w/w), 6 h); 10602.6 ± 18.2^h μg/cm^2 in series [6] (from cream 1% (w/w), 24 h). Moreover, the “Cumulative permeated amounts Q t” value is listed as 220.5 ± 11.1^abc μg/cm^2 in [6] (from gel 1% (w/w), 0.5 h); 401.6 ± 30.9^c μg/cm^2 in series [6] (from gel 1% (w/w), 1 h); 626.4 ± 211.1^d μg/cm^2 in series [6] (from gel 1% (w/w), 2 h); 1474.5 ± 306.9^f μg/cm^2 in series [6] (from gel 1% (w/w), 4 h); 1927.6 ± 241.2^g μg/cm^2 in series [6] (from gel 1% (w/w), 6 h); 13766.8 ± 92.8^i μg/cm^2 in [6] (from gel 1% (w/w), 24 h). Further, the “Cumulative permeated amounts Q t” value is 75.3 ± 5.4^cd μg/cm^2 in series [6] (from ointment 1% (w/w), 0.5 h); 84.8 ± 7.3^de μg/cm^2 in series [6] (from ointment 1% (w/w), 1 h); 96.7 ± 5.9^fg μg/cm^2 in series [6] (from ointment 1% (w/w), 2 h); 112.4 ± 7.3^h μg/cm^2 in [6] (from ointment 1% (w/w), 4 h); 126.4 ± 3.7^i μg/cm^2 in series [6] (from ointment 1% (w/w), 6 h); 151.9 ± 9.5^j μg/cm^2 in [6] (from ointment 1% (w/w), 24 h). In [6] (from the buffer and other semisolid pharmaceutical compositions), the “permeation through the skin, fold more than the nanonized form” value is given as “ca. 2 fold”. In addition, the “lag time T lag” value was 0.69 ± 0.38 h in [6] (medium buffer), 0.57 ± 0.01 h in series [6] (medium cream) and 1.03 ± 0.23 h in series [6] (medium gel). Moreover, the “apparent permeability coefficient K p × 10^−3” value in series [6] (medium buffer) was 16.84 10^−3 cm/h; in series [6] (medium cream), 45.22 10^−3 cm/h; in [6] (medium gel), 58.80 10^−3 cm/h. Moreover, the “nonsteady-state permeation flux J” value in series [6] (medium buffer, linearized Q t vs time, six time points) stood at 168.4 ± 8.7 μg/cm^2/h; in series [6] (medium cream), 452.2 ± 0.8 μg/cm^2/h; in series [6] (medium gel), 588.0 ± 4.8 μg/cm^2/h.

The values are drawn from paper PMC3881672, “In Vitro Permeation of Micronized and Nanonized Alaptide from Semisolid Formulations” (The Scientific World Journal, 2013).
